From US20200383969A1, “RIMEGEPANT FOR CGRP RELATED DISORDERS” (Biohaven Pharmaceutical Holding Company Ltd., priority 2018, published 2020)

Assays:
[1] = Study 201 (BHV3000-201), open label long-term safety study, rimegepant 75 mg, interim analysis; format: in vivo, human
Description: Clinical Trial-BHV3000-201: Open Label Safety Study in Acute Treatment of Migraine (ClinicalTrials.gov Identifier: NCT 03266588) • Study Type: Interventional (Clinical Trial) • Estimated Enrollment: 2000 participants • Intervention Model: Single Group Assignment • Masking: None (Open Label) • Primary Purpose: Treatment • Official Title: A Multicenter, Open Label Long-Term Safety Study of BHV3000 in the Acute Treatment of Migraine • Actual Study Start Date: Aug. 30, 2017 • Estimated Primary Completion Date: July 2019 • Estimated Study Completion Date: July 2019 • 1. To assess the safety and tolerability of rimegepant (BHV-3000) by measuring the frequency and severity of adverse events and discontinuations due to adverse events [Time Frame: 52 weeks] Number of subjects with treatment-emergent adverse events as assessed through laboratory tests, ECGs, physical exam findings (safety and tolerability) • 1. ALT or […] with total bilirubin>2×ULN [Time Frame: 52 weeks] elevated liver function tests • 2. hepatic related adverse events and hepatic related adverse events that lead to discontinuation [Time Frame: 52 weeks] adverse events related to liver Results from the clinical trial described in Example 10 are summarized as follows. […] Patients were allowed to treat migraine attacks of all severities (mild to severe) up to once daily for a full year. The initial results for hepatic safety and tolerability of rimegepant 75 mg in study participants is based upon review of both adverse events and regularly scheduled liver function tests. Interim hepatic data were reviewed by an external and independent panel of liver experts. […] In the aggregate, it was noted that compared to migraine trials with drugs other than rimegepant, there was a very low incidence of overall elevations of liver function test abnormalities in rimegepant treated patients (1.0% incidence of serum ALT or AST>3× ULN). Subjects will continue to participate in Study 201 with additional data analyses to be submitted in the NDA and required 120-day safety updates. In addition to the interim safety analysis, data from subjects was assessed to determine reductions in the number of headache days per month.

[2] = Study 303 (BHV3000-303), Phase 3, rimegepant 75 mg ODT vs placebo, acute treatment of migraine; format: in vivo, human
Description: Clinical Trial—BHV3000-303: Phase 3: Double-Blind, Randomized, Placebo-Controlled, Safety and Efficacy Trial of BHV-3000 (Rimegepant) Orally Discintegrating Tablet (ODT) for the Acute Treatment of Migraine (ClinicalTrials.gov Identifier: NCT03461757) • Study Type: Interventional (Clinical Trial) • Actual Enrollment: 1812 participants • Allocation: Randomized • Intervention Model: Parallel Assignment • Masking: Triple (Participant, Care Provider, Investigator) • Primary Purpose: Treatment • Official Title: BHV3000-303: Phase 3, Double-Blind, Randomized, Placebo Controlled, Safety and Efficacy Trial of BHV-3000 (Rimegepant) Orally Disintegrating Tablet (ODT) for the Acute Treatment of Migraine • Actual Study Start Date: Feb. 27, 2018 • Actual Primary Completion Date: Oct. 8, 2018 • Actual Study Completion Date: Oct. 15, 2018 • 1. Pain freedom of rimegepant compared with placebo in the acute treatment of migraine will be measured using the number of evaluable subjects that report no pain at 2 hours post-dose. • Pain will be measured on a 4 point Likert scale (0=none, 1=mild, 2=moderate, 3=severe) • 2. Freedom from the most bothersome symptom (MBS) of rimegepant compared with placebo will be measured using the number of evaluable subjects that report the absence of their MBS at 2 hours post-dose. [Time Frame: Two Hours Post Dose] • The MBS (nausea, phonophobia or photophobia) will measured using a binary scale (0=absent, 1=present). • 1. […] [Time Frame: 2 Hours Post-Dose] • Pain Relief as measured by a 4 point numeric rating scale (None, Mild, Moderate, Severe) • 2. […] [ Time Frame: 2 hours-24 hours post-dose] • Sustained Pain Relief as measured by a 4 point numeric rating scale (None, Mild, Moderate, Severe) • 4. […] To measure rimegepant compared to placebo on the probability of requiring rescue medication will be assessed using the number of subjects that take rescue medication within […] administration of study medication (BHV3000 or placebo). […] Sustained ability to function at a normal level as measured by the Functional disability scale [Time Frame: 2 to 24 hours post dose] • Subjects self-report “normal” on the functional disability scale • 7. […] [Time Frame: 2 hours-48 hours post-dose] • Sustained Pain Relief as measured by a 4 point numeric rating scale (None, Mild, Moderate, Severe) • 8. […] Sustained ability to function at a normal level as measured by the Functional disability scale [Time Frame: 2 to 48 hours post dose] • Subjects self-report “normal” on the functional disability scale • 10. […] [Time Frame: 90 minutes post dose] • Pain Relief as measured by a 4 point numeric rating scale (None, Mild, Moderate, Severe) • 13. […] [Time Frame: 2 hours -24 hours post-dose] • Sustained Pain Freedom as measured by a 4 point numeric rating scale (None, Mild, Moderate, Severe) • 14. […]

In the case of `N[C@@H]1c2cccnc2[C@H](OC(=O)N2CCC(n3c(=O)[nH]c4ncccc43)CC2)CC[C@H]1c1cccc(F)c1F` [Rimegepant, [(5S,6S,9R)-5-amino-6-(2,3-difluorophenyl)-6,7,8,9-tetrahydro-5H-cyclohepta[b]pyridin-9-yl] 4-(2-oxo-3H-imidazo[4,5-b]pyridin-1-yl)piperidine-1-carboxylate], the “>=30.0% decrease in migraines (headache days) per month, percent of subjects” value ([1]; Study 201, Overall, n 1731, treatment vs observation phase) is reported as 30.2%, the “Onset of reductions in the mean number of headache days per month” value ([1]; Study 201, continued in subsequent months) is reported as “as early as the first month” and the “Hy's Law cases” value ([1]; Study 201 interim) is reported as “no Hy's Law cases”. For the same compound, the “Incidence of serum ALT or AST>3× ULN” value ([1]; Study 201 interim) was 1.0%, the “Safety and tolerability of long-term dosing” value ([1]; Study 201 interim analysis, 75 mg up to once daily) was “consistent with the profile observed in phase 1-3 studies to date” and the Liver safety signal ([1]; Study 201 interim, including near-daily dosing (≥15 doses/month)) was “no liver safety signal detected”. For the same compound, the “Liver cases assessed as probably related to study drug” value ([1]; Study 201 interim, independent panel of liver experts) was “no liver cases”, the “LFTs>3×ULN, number of patients” value ([2]; Study 303) was “one” and the “Clinical benefit through 48 hours (pain relief, pain freedom, MBS, functional disability) vs placebo” value ([2]; Study 303, single dose) was “Lasting clinical benefit”. For the same compound, the Safety and tolerability ([2]; Study 303 vs Studies 301 and 302) was “consistent with the profile previously observed” and the “Highest incidence of any single adverse event” value ([2]; rimegepant group, Study 303 paragraph, sentence follows mention of pooled Table 9) was no more than 1.6%.
